Our source for the IC50 and Activity values is ChEMBL document CHEMBL3593235, “Discovery of xanthine oxidase inhibitors and/or α-glucosidase inhibitors by carboxyalkyl derivatization based on the flavonoid of apigenin” (Bioorg Med Chem Lett, 2015).

Assay [1] is described as follows: Inhibition of alpha glucosidase (unknown origin) using para-nitrophenyl-alpha-D-glucopyranoside as substrate preincubated for 15 mins followed by substrate addition measured after 10 mins by spectrophotometric analysis. On the set-up: species or system Homo sapiens.
Assay [2] has as its target Xanthine dehydrogenase/oxidase (Homo sapiens, UniProt P47989). Nature of the assay: Inhibition of xanthine oxidase (unknown origin) using xanthine as substrate preincubated for 15 mins followed by substrate addition measured after 30 mins by spectrophotometric analysis.
Assay [3] concerns Mus musculus. The assay is described as follows: Hypouricemic activity in ICR mouse assessed as decrease in potassium oxonate-induced serum uric acid level at 10 mg/kg, ip after 1 hr by Uricase colorimetric method. The format is functional, organism-based.
Assay [4] has as its system Mus musculus. The assay is described as follows: Hypoglycemic activity in ICR mouse assessed as decrease in elevated postprandial blood glucose level at 20 mg/kg, po administered 30 mins prior to sucrose challenge measured after 30 mins by OSTT. It counts as functional, organism-based.
Assay [5] has as its system Mus musculus. The assay is described as follows: Hypoglycemic activity in ICR mouse assessed as decrease in elevated postprandial blood glucose level at 20 mg/kg, po administered 30 mins prior to glucose challenge measured after 30 mins by OGTT. It counts as functional, organism-based.

The source made the active and inactive calls. The rule behind the calls is not given here.

Xanthine dehydrogenase/oxidase, sequence (P47989 whole entry): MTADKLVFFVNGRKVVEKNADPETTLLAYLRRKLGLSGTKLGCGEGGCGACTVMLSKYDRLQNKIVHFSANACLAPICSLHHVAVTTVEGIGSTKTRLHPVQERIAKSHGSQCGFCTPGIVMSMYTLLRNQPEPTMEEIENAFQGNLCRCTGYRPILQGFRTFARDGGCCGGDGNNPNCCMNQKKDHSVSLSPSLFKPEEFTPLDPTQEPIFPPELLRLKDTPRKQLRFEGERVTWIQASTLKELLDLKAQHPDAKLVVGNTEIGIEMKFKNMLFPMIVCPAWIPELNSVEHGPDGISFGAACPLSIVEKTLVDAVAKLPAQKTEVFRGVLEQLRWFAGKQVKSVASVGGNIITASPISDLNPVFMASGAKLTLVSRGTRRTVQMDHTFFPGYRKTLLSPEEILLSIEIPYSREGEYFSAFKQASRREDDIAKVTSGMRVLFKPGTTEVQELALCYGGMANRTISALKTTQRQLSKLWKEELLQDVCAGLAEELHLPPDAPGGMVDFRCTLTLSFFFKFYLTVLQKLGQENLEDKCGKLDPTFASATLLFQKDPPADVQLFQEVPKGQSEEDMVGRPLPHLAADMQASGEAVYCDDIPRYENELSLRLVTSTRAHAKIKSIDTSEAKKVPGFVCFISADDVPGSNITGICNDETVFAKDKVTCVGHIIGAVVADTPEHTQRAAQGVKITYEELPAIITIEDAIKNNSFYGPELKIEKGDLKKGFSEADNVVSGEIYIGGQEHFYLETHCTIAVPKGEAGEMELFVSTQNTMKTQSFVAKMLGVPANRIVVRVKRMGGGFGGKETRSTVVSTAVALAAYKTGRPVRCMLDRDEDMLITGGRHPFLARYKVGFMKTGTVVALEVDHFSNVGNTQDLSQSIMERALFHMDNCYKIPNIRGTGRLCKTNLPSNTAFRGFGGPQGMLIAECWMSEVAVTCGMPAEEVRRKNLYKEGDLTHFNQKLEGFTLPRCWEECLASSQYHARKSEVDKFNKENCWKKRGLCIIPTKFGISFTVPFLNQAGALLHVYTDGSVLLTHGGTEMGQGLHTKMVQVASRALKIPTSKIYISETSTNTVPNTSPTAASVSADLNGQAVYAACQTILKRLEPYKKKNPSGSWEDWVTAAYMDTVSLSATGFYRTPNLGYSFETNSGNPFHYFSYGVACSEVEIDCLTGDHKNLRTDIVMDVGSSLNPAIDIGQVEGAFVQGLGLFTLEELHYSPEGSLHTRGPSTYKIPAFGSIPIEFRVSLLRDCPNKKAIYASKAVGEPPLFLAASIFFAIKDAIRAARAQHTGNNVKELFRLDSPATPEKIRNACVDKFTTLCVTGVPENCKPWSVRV

For orientation: IC50 means the concentration that inhibits the measured activity by half. A higher IC50 goes with weaker potency in that assay. For `O=C(O)CCCCCCCOc1cc(O)cc2oc(-c3ccc(O)cc3)cc(=O)c12`, the half-maximal inhibitory concentration (IC50) in assay [1] is more than 500 µM.

On to `O=C(O)COc1cc(O)cc2oc(-c3ccc(O)cc3)cc(=O)c12`, for which the IC50 in assay [1] came out at 113 µM.

As to `O=C(O)CCCCCOc1ccc(-c2cc(=O)c3c(O)cc(O)cc3o2)cc1`, the concentration for half-maximal inhibition (IC50) in assay [1] is more than 500 µM; in assay [2], 0.32 µM.

Molecule `O=C(O)COc1ccc(-c2cc(=O)c3c(O)cc(O)cc3o2)cc1` came in with a half-maximal inhibitory concentration (IC50) in assay [1] of more than 500 µM.

The molecule `O=C(O)COc1cc(O)c2c(=O)cc(-c3ccc(O)cc3)oc2c1` came in with an IC50 in assay [1] of 61.2 µM.

Take `O=C(O)CCCOc1cc(O)c2c(=O)cc(-c3ccc(O)cc3)oc2c1`: the IC50 is 44.5 µM in assay [1] and more than 100 µM in assay [2].

For `O=C(O)CCCCCCOc1ccc(-c2cc(=O)c3c(O)cc(O)cc3o2)cc1`, the figures for the IC50 in assay [1] and in assay [2] were more than 500 µM and 0.098 µM, respectively. In addition, the outcome in the assay with Mus musculus [3] was Active.

For the molecule `O=c1cc(-c2ccc(O)cc2)oc2cc(O)cc(O)c12` [APIGENIN], the IC50 came out at 24.3 µM in assay [1] and 3.2 µM in assay [2]. Further, the result in the assay on Mus musculus [3] and in the assay with Mus musculus [4] was inactive.

The molecule `O=C(O)CCCOc1cc(O)cc2oc(-c3ccc(O)cc3)cc(=O)c12` yielded an IC50 in assay [1] of 35.9 µM.

Regarding `C[C@H]1O[C@H](O[C@H]2[C@H](O)[C@@H](O)[C@@H](O[C@H]3[C@H](O)[C@@H](O)C(O)O[C@@H]3CO)O[C@@H]2CO)[C@H](O)[C@@H](O)[C@@H]1N[C@H]1C=C(CO)[C@@H](O)[C@H](O)[C@H]1O` (some centres undefined) [ACARBOSE], in assay [1], the half-maximal inhibitory concentration (IC50) is 222 µM. In addition, in the assay on Mus musculus [4], the outcome was Active.

On to `O=C(O)CCCCCCCOc1ccc(-c2cc(=O)c3c(O)cc(O)cc3o2)cc1`, for which the IC50 in assay [1] is more than 500 µM; in assay [2], 0.25 µM.

With `O=C(O)CCCCCOc1cc(O)cc2oc(-c3ccc(O)cc3)cc(=O)c12`, the outcome in the assay with Mus musculus [5] was inactive. In addition, the IC50 in assay [1] was 26.2 µM. The outcome with Mus musculus [4] was Active.

For `O=C(O)CCCCOc1cc(O)c2c(=O)cc(-c3ccc(O)cc3)oc2c1`, the half-inhibitory concentration (IC50) in assay [1] is 33.7 µM; in assay [2], more than 100 µM.

For `O=C(O)CCCCOc1ccc(-c2cc(=O)c3c(O)cc(O)cc3o2)cc1`, the IC50 in assay [1] was more than 500 µM; in assay [2], 0.22 µM.

On to `O=C(O)CCCCOc1cc(O)cc2oc(-c3ccc(O)cc3)cc(=O)c12`, for which the result in the assay on Mus musculus [5] and in the assay with Mus musculus [4] was inactive. Also, the 50% inhibitory concentration (IC50) in assay [1] is 39 µM.

For `O=C(O)CCCCCOc1cc(O)c2c(=O)cc(-c3ccc(O)cc3)oc2c1`, the IC50 was 101 µM in assay [1] and more than 100 µM in assay [2].

`O=C(O)CCCCCCOc1cc(O)cc2oc(-c3ccc(O)cc3)cc(=O)c12`: the result in the assay on Mus musculus [5] was inactive. The molecule further gave an IC50 in assay [1] of 51.4 µM. In addition, the result with Mus musculus [4] was Active.

For `O=C(O)CCCOc1ccc(-c2cc(=O)c3c(O)cc(O)cc3o2)cc1`, the half-inhibitory concentration (IC50) in assay [1] is more than 500 µM; in assay [2] it was 0.6 µM.

Turning to `O=C(O)CCCCCCOc1cc(O)c2c(=O)cc(-c3ccc(O)cc3)oc2c1`, the IC50 in assay [1] is 90.4 µM; in assay [2], more than 100 µM.

For the molecule `Oc1ncnc2[nH]ncc12`, the result in the assay on Mus musculus [3] was Active.

For `O=C(O)CCCCCCCOc1cc(O)c2c(=O)cc(-c3ccc(O)cc3)oc2c1`, the result in the assay with Mus musculus [5] and in the assay with Mus musculus [4] was inactive. The IC50 in assay [1] is 18.3 µM; in assay [2] it was more than 100 µM.
